The text below walks through data of patent publication US20250312370A1, “SYSTEMS AND METHODS FOR USE OF ADENOSINE TRIPHOSPHATE (ATP) TO RELIEVE SYMPTOMS OF COVID-19 AND RELATED INFECTIONS” (ADENYLATE THERAPEUTICS LLC, priority 2020, published 2025).

Data set [1] concerns COVID-19. The experiment in a line: oral ATP supplementation of COVID-19 patients in facility 3. To be noted: protocol similar to facilities 1 and 2. The data set is classed as in vivo, human. From the text: Using a protocol similar to those used in facilities 1 and 2, ATP supplementation was begun in facility 3.
For data set [2] the following is noted: high dose oral ATP, cited from earlier work.
Data set [3] concerns advanced hormone refractory prostate cancer. Conditions: oral ATP added to palliative agents such as samarium-153; cited from earlier work.
For data set [4], the system named is COVID-19. The experiment in a line: non-randomized trial of oral ATP supplementation for treatment of COVID-19 at two residential care facilities (facilities 1 and 2). The class given is in vivo, human. The text has this: FIG. 3 provides a summary of short-term results of a non-randomized trial of ATP supplementation for treatment of COVID-19 at two different residential care facilities. When the facilities experienced a rapid and insidious onset of COVID-19 in 2020, optional oral ATP nutritional supplementation to COVID-19-positive patients in these two facilities was offered. Patients were given free choice to either accept or reject ATP supplementation. ATP doses ranged from 400-mg capsules four times per day (1600 mg) in the younger patients at facility 1 to three 400-mg capsules three times per day (3600 mg) for the older patients in facility 2. In both facilities, ATP was taken for at least a week after confirmation of SARS-CoV-2 infection. ATP also was offered in powder form to be mixed with food or drink at 450 mg per dose.
From the initial 13 patients diagnosed with COVID-19 in facility 1, six patients with average age 75.0 years chose to start ATP while the remaining seven with average age 74.7 years chose not to take ATP. Because of the visible developing benefit conferred by ATP, all subsequent COVID-19 patients at the facility 1 chose to begin taking ATP at the time of their diagnoses. All six patients who initially chose ATP were still alive.
At facility 2, all of the patients receiving ATP started taking ATP on the same day following confirmation of viral infection. All of the facility 2 patients taking ATP were alive. Because all patients taking ATP were elderly with multiple co-morbidities (including diabetes and heart disease), it would be expected that their death rate should be worse than that of the general population of individuals over 70 years of age.

The conditions of data set [5]: in vivo; cited from earlier work.
The conditions of data set [6]: prolonged infusion; chronically debilitated patients with metastatic treatment refractory disease (Stage IV cancer); cited from earlier work.

Turning to `Nc1ncnc2c1ncn2[C@@H]1O[C@H](COP(=O)(O)OP(=O)(O)OP(=O)(O)O)[C@@H](O)[C@H]1O` [ATP, Adenosine Triphosphate], the “survival of COVID-19 patients taking supplemental ATP” value in the data set on COVID-19 [1] is “survived except for one patient”. Moreover, the cancer patient survival entry in data set [2] (advanced cancer patients) was “improved”. In addition, in data set [2] (athletes), the athletic performance entry was “improved”. Besides, the “prostate biomarker PSA” value in data set [3] is on record as “dramatically reduces”. Besides, in the data set with COVID-19 [4] (facilities 1 and 2, oral ATP 1600-3600 mg per day for at least a week, 2 months after the initiation of supplemental ATP), the “survival of COVID-19-positive patients accepting oral ATP” value is “alive and recovering”. Further, the “survival of patients who initially chose ATP” value in the data set with COVID-19 [4] (facility 1, six patients, average age 75.0 years, 400-mg capsules four times per day) is on record as “still alive”. Besides, the “survival of patients taking ATP” value in the data set with COVID-19 [4] (facility 2, older patients, three 400-mg capsules three times per day) was “alive”. Besides, the pulmonary artery hypertension entry in data set [5] was “reverse”. Besides, the safety of administration result in data set [6] is “safely administered”.
